Counter-ions that a name gives are not always drawn.
Columns and labels:
[1] = system: human patient with BD or ADHD; assay: Clinical response of outpatient psychiatric patients to medication (clinical vignettes); type: in vivo; conditions: for Clinical stabilization of Bipolar I Disorder: Example 4, person, combination: aripiperazole, citalopram, oxcarbazepine and alprazolam
Description: (§1) Certain patients from the outpatient private psychiatric practice were retested after widely varying intervals as shown in the following Examples. Participation was completely voluntary and only allowed after the signing of a consent form. For the purpose of maintaining the privacy of the subject the lab work was performed confidentially (called blinding of the tester). Each patient was assigned an identification (ID) number and only the clinician had access to the key which correlated ID numbers with patient names.

whole blood cells = assay: Membrane potential ratio (MPR) test on blood cells of patients under drug treatment; type: in vivo, human; conditions: for MPR value: Example 6, patient with ADHD
Description: The MPR™ test is used to diagnose BD and ADHD. Briefly, the MPR™ test involves measuring the membrane potential of the human cells in a test buffer and in a reference buffer and calculating the ratio of these membrane potentials.
Briefly, the membrane potentials of whole blood cells are measured using two different buffers in a plate reader. The mean MPR™ value is the ratio between the membrane potential of a patient's cells in the test buffer as the numerator and that in the reference buffer as the denominator determined by statistical analysis of multiple measurements, using the ANOVA and the multiple statistical regression analysis.
The membrane potential of a patient's cells may be ascertained by any conventional method, such as by examining the fluorescence intensity of a potential-sensitive lipophilic fluorescent dye. The membrane potential is directly proportional to the intensity of fluorescence according to the following equation: I=CV, wherein I is the fluorescence intensity of a lipophilic fluorescent dye, V is the voltage or membrane potential, and C is a constant that can vary depending on a number of factors such as, but not limited to, temperature, lamp intensity, number of cells, concentration of the fluorescent dye, incubation time, and lipid composition of cells used. The calibration and determination of the value for C can be a cumbersome and unreliable procedure. Thus, according to the present invention, by using the ratio of the fluorescence intensity (I1) of one sample of cells to the fluorescence intensity (I2) of another sample of cells, the constant (C) is canceled out. Such ratio-metric measurements are preferred over absolute measurements.
as §1

human patient with ADHD = assay: WHO screener for ADHD symptoms (patient self-report); type: in vivo; conditions: for WHO screener, score on the 6 screening items / WHO screener, score out of the total possible of 18: Example 5, combination: sertraline 50 mg per day and lamotrigine 200 mg per day
Description: Certain patients from the outpatient private psychiatric practice were retested after widely varying intervals as shown in the following Examples. Participation was completely voluntary and only allowed after the signing of a consent form. For the purpose of maintaining the privacy of the subject the lab work was performed confidentially (called blinding of the tester). Each patient was assigned an identification (ID) number and only the clinician had access to the key which correlated ID numbers with patient names. Because these were and are patients presenting for treatment, the priority has been their treatment. They have manifested all the typical variability found in clinical practice, and the resulting data points obtained are those possible under these circumstances. The paired MPR™ results are presented along with clinical vignettes. The patients with repeated tests are shown in example 1 and their vignettes are elucidated here. This clinical data and its interpretation provide the basis for the claims of the invention.

human patient = assay: Side effects reported by patients on medication; type: in vivo; conditions: for Side effects: Example 5, combination: sertraline 50 mg per day and lamotrigine 200 mg per day
[2] = Example 4, combination: escitalopram 10 mg per day, aripiperazole 2 mg per day, alprazolam 0.5 mg twice a day as needed, tapering from oxcarbazepine (A in FIG. 4)
[3] = Example 1, combination: selegiline transdermal 12 mg per 24 hours and mixed amphetamine salts 15 mg per day
[4] = Example 3, person with BD, combination: lithium, quetiapine and mirtazapine (B in FIG. 3)
[5] = Example 2, combination: dextroamphetamine sulfate 5 mg three times per day and extended release dexmethylphenidate 20 mg morning and afternoon (C in FIG. 2)
[6] = Example 5, combination: sertraline 50 mg per day and lamotrigine 200 mg per day (B in FIG. 5)

Compound: COC(=O)C(c1ccccc1)C1CCCCN1 (stereo not drawn) [methylphenidate]
- Clinical effect on ADHD symptoms reported by subject ([1]; Example 4, 10 mg twice per day, later 10 mg three times per day, added to BD medication): benefit
- MPR value (whole blood cells; 10 mg (FIG. 6)): close to the BD side of the negative range
- MPR value (whole blood cells; dose reduced to 5 mg (FIG. 6)): moved up close to the right value

Compound: O=C1CCc2ccc(OCCCCN3CCN(c4cccc(Cl)c4Cl)CC3)cc2N1 [aripiperazole]
- Clinical stabilization of Bipolar I Disorder [1]: not fully stabilized
- MPR test range (whole blood cells; [2]): bipolar transition range

Compound: C#CCN(C)[C@H](C)Cc1ccccc1 [selegiline transdermal, selegiline]
- WHO screener, positive items of the six items (human patient with ADHD; [3]): 1

Compound: CN1CCN2c3ncccc3Cc3ccccc3C2C1 (stereo not drawn) [mirtazapine]
- Outcome of trial of adding the drug (depression) ([1]; Example 1, added to mixed amphetamine salts): unsuccessful
- MPR result range (whole blood cells; [4]): negative (normal) range

Compound: OCCN1CCN(CCCN2c3ccccc3Sc3ccc(Cl)cc32)CC1 [perphenazine]
- Side effect leading to discontinuation (human patient; Example 3, very low dosage for neurotic anxiety): blurred vision

Compound: C[C@H](N)Cc1ccccc1 [dextroamphetamine sulfate]
- MPR test result range (whole blood cells; [5]): ADHD transition range

Compound: mixed amphetamine salts
- WHO screener, positive items of the six items (human patient with ADHD; [3]): 1
- WHO screener, positive items of the 6 items (human patient with ADHD; Example 1, taking only mixed amphetamine salts): 3
- WHO screener, positive items of the 6 items (human patient with ADHD; Example 1, two weeks after stopping mixed amphetamine salts): 4
- WHO screener, positive items of the six items (human patient with ADHD; Example 2, 40 mg every morning): two
- Symptomatic control of ADHD ([1]; Example 2, 40 mg every morning): good symptomatic control
- MPR value range (whole blood cells; Example 1, blood drawn third week after stopping mixed amphetamine salts (B in FIG. 1)): ADHD range
- MPR value range (whole blood cells; Example 1, person, taking only mixed amphetamine salts (A in FIG. 1)): negative (normal) range
- MPR test result range (whole blood cells; Example 2, 40 mg every morning, with lamotrigine for BD (B in FIG. 2)): negative range

Compound: CN(C)CCC[C@@]1(c2ccc(F)cc2)OCc2cc(C#N)ccc21 [escitalopram]
- MPR test range (whole blood cells; [2]): bipolar transition range

Compound: Cc1nnc2n1-c1ccc(Cl)cc1C(c1ccccc1)=NC2 [alprazolam]
- Clinical stabilization of Bipolar I Disorder [1]: not fully stabilized
- MPR test range (whole blood cells; [2]): bipolar transition range

Compound: Nc1nnc(-c2cccc(Cl)c2Cl)c(N)n1 [lamotrigine]
- Side effects (human patient): without complaint of side effects
- WHO screener, score on the 6 screening items (human patient with ADHD): 0
- WHO screener, score out of the total possible of 18 (human patient with ADHD): 1
- Clinical benefit ([1]; Example 5, tapered up as per a starter pack, subject able to return to work): offered benefit quickly
- MPR result range (whole blood cells; [6]): ADHD range

Compound: NC(=O)N1c2ccccc2CC(=O)c2ccccc21 [oxcarbazepine]
- Clinical stabilization of Bipolar I Disorder [1]: not fully stabilized

Compound: CC(NC(C)(C)C)C(=O)c1cccc(Cl)c1 (stereo not drawn) [bupropion]
- Clinical benefit by history ([1]; Example 5, earlier treatment, patient history): had not offered a benefit

Compound: COC(=O)[C@H](c1ccccc1)[C@H]1CCCCN1 [extended release dexmethylphenidate, dexmethylphenidate]
- Clinical benefit as reported by patient ([1]; Example 2, combination of dextroamphetamine and extended release dexmethylphenidate, compared with mixed amphetamine salts 40 mg): not working as well
- MPR test result range (whole blood cells; [5]): ADHD transition range

Compound: OCCOCCN1CCN(C2=Nc3ccccc3Sc3ccccc32)CC1 [quetiapine]
- Mood stabilization ([1]; Example 4, addition of lithium 600 mg per day and Seroquel 100 mg at bedtime): further stabilized clinically
- MPR result range (whole blood cells; [4]): negative (normal) range
- MPR test range (whole blood cells; Example 4, after addition of lithium 600 mg per day and Seroquel 100 mg at bedtime (B in FIG. 4)): ADHD range

Compound: CN[C@H]1CC[C@@H](c2ccc(Cl)c(Cl)c2)c2ccccc21 [sertraline]
- Side effects (human patient): without complaint of side effects
- WHO screener, score on the 6 screening items (human patient with ADHD): 0
- WHO screener, score out of the total possible of 18 (human patient with ADHD): 1
- Clinical effect on depression according to the subject ([1]; Example 5, person, 100 mg at bedtime): no longer working
- MPR result range (whole blood cells; [6]): ADHD range
- MPR result range (whole blood cells; Example 5, initial evaluation, subject on sertraline 100 mg at bedtime (A in FIG. 5)): BD transition range
